How the values were obtained:
COLO 205 = assay: NCI screen antiproliferative activity, sulforhodamine B, Colon Cancer panel; type: cell-based, human; conditions: 48 hours, five 10-fold dilutions starting from 100 μM
KM12 = assay: as above; type: cell-based, human; conditions: 48 hours, five 10-fold dilutions starting from 100 μM
LOX IMVI = assay: NCI screen antiproliferative activity, sulforhodamine B, Melanoma panel; type: cell-based, human; conditions: 48 hours, five 10-fold dilutions starting from 100 μM
NCI-H23 = conditions: 48 hours, five 10-fold dilutions starting from 100 μM
NCI-H522 = conditions: 48 hours, five 10-fold dilutions starting from 100 μM
SF-539 = conditions: 48 hours, five 10-fold dilutions starting from 100 μM
786-0 = conditions: 48 hours, five 10-fold dilutions starting from 100 μM
HOP-92 = assay: cells; conditions: Homo sapiens, HOP-92, 48 h
NCI-H460 = assay: cells; conditions: Homo sapiens, NCI-H460, 48 h
HCT-116 = assay: cells; conditions: Homo sapiens, HCT-116, 48 h
SNB-75 = assay: cells; conditions: Homo sapiens, SNB-75, 48 h
T-47D = assay: cells; conditions: Homo sapiens, T47D, 48 h

## CCCCCCCCNCCC[C@@H](C)[C@H]1CC[C@H]2[C@@H]3[C@H](OCCCN)C[C@@H]4C[C@H](OCCCN)CC[C@]4(C)[C@H]3C[C@H](OCCCN)[C@]12C [CSA-13]
COLO 205
  TGI: 3.02 µM
COLO 205; Homo sapiens
  GI50: 1.27 µM
KM12
  TGI: 2.76 µM
KM12; Homo sapiens
  GI50: 0.586 µM
LOX IMVI
  TGI: 1.73 µM
LOX IMVI; Homo sapiens
  GI50: 0.378 µM
NCI-H23
  TGI: 3.12 µM
NCI-H522
  TGI: 10.5 µM
SF-539
  TGI: 1.41 µM
786-0
  TGI: 2.26 µM
HOP-92
  GI50: 0.408 µM
HOP-92; read-out: LC50
  CC50: > 100 µM
NCI-H460
  GI50: 1.21 µM
NCI-H460; read-out: LC50
  CC50: 15.5 µM
HCT-116
  GI50: 0.87 µM
HCT-116; read-out: LC50
  CC50: 7.25 µM
SNB-75
  GI50: 1.76 µM
SNB-75; read-out: LC50
  CC50: 57.2 µM
T-47D
  GI50: 1.92 µM
T-47D; read-out: LC50
  CC50: > 100 µM

From patent US9943529B2, “Methods for reducing cellular proliferation and treating certain diseases” (BRIGHAM YOUNG UNIVERSITY, priority 2013, dated 2018)
